Test results reported in patent US8841341B2, “Pharmaceutical composition effective against biofilms” (Helmholtz-Zentrum fuer Infektionsforschung GmbH, priority 2007, dated 2014).
Entries after “also recorded” stand apart in the source; their conditions may differ. Like-named read-outs stand apart in the source and are kept apart here.

What was measured:
Type in all cases: cell-based
[1] = tested on: Streptococcus mutans planctonic cultures; assay: Planctonic growth (optical density readings at 620 nm); settings: THB without additional sucrose
Protocol: (§1) Using Streptococcus mutans as a model organism that generates biofilms, overnight cultures of Streptococcus mutans in THB medium (Todd Hewitt Broth, available from Bacto) were diluted 1:100 into fresh THB medium containing 0.5% wt/vol sucrose. For anaerobic growth, medium was flushed with nitrogen before use. Aliquots of the diluted culture (95 μL) of Example 1 were distributed into the wells of a 96-well polystyrene flat bottom microtiter plate, containing 5 μL of different concentrations of test compound or alternatively, 5 μL methanol as a control. Microtiter plates were incubated under aerobic and an anaerobic conditions, respectively, at 37° C. for approximately 24 hours. For non-biofilm forming growth, e.g. planctonic growth, cells were grown in THB without the additional sucrose under otherwise identical conditions.
Bacterial growth was monitored in the microtiter plate by optical density readings at 620 nm. Quantitative bio film formation was determined using the live/dead bacLight bacterial viability staining kit (available under catalogue number L13152 from Molecular Probes, Eugene, Oreg., USA). […] When used alone, the green fluorescing stain Cyto9 generally labels all bacteria in the population, whereas the red fluorescing stain propidium-iodide only penetrates bacteria having damaged membranes, causing a reduction in the Cyto9 stain fluorescence when both dyes are present.

[2] = tested on: Streptococcus mutans com D (−) mutant; assay: Inhibition of biofilm formation, quorum sensing negative mutant com D (-); settings: read-out: Biofilm inhibition, com D (−) mutant
Protocol: as §1
(§2) Bacterial growth was monitored in the microtiter plate by optical density readings at 620 nm. Quantitative bio film formation was determined using the live/dead bacLight bacterial viability staining kit (available under catalogue number L13152 from Molecular Probes, Eugene, Oreg., USA). […] When used alone, the green fluorescing stain Cyto9 generally labels all bacteria in the population, whereas the red fluorescing stain propidium-iodide only penetrates bacteria having damaged membranes, causing a reduction in the Cyto9 stain fluorescence when both dyes are present. […]

E. coli tolC = assay: Antibiotic activity against E. coli tolC in vitro; settings: E. coli tolC has an impaired cell wall
[3] = tested on: Streptococcus mutans com E (−) mutant; assay: Inhibition of biofilm formation, quorum sensing negative mutant com E (-)
[4] = tested on: Streptococcus mutans luxS mutant; assay: Inhibition of biofilm formation, luxS mutant; settings: read-out: Biofilm inhibition, luxS mutant
Protocol: as §1, §2

E. coli = assay: Antibiotic activity against E. coli
[5] = tested on: Streptococcus mutans wild-type strain; assay: Inhibition of biofilm formation in in vitro culture (live/dead BacLight staining, microtiter plate); settings: for inhibition at 0.025 µg/mL: Carolacton 0.025 μg/mL; for inhibition at 0.25 µg/mL: Carolacton 0.25 μg/mL; for inhibition at 2.5 µg/mL: Carolacton 2.5 μg/mL; for inhibition at 50 µg/mL: Carolacton 50 μg/mL
Protocol: as §1
Bacterial growth was monitored in the microtiter plate by optical density readings at 620 nm. Quantitative bio film formation was determined using the live/dead bacLight bacterial viability staining kit (available under catalogue number L13152 from Molecular Probes, Eugene, Oreg., USA). The kit incorporates two nucleic acid stains that differ in spectral characteristics and their ability to penetrate bacterial cell membranes. When used alone, the green fluorescing stain Cyto9 generally labels all bacteria in the population, whereas the red fluorescing stain propidium-iodide only penetrates bacteria having damaged membranes, causing a reduction in the Cyto9 stain fluorescence when both dyes are present.
For staining, the culture medium was removed from the microtiter plate wells and cells were washed once with 100 μL fresh THB medium to remove planctonic growing and loosely bound cells. According to all the manufacturer's instructions, the adherent bacteria, regarded as the bio film, were then stained for 15 min in the dark at room temperature, using 100 μL of a 1:1 mixture of the two dye components. Fluorescence was measured in a microtiter plate reader (Wallac Victor 1420 multilabel counter, PerkinElmer Life Sciences), equipped with detectors and filter sets for monitoring red and green fluorescence.
Quantitative bio film formation was calculated by dividing the fluorescence intensities of the stained biofilms for each well of the microtiter plate at an emission of 530 nm (green) by the fluorescence intensity at the emission of 630 nm (red). As 100% activity, the results obtained from wells only containing methanol as the control, instead of a test compound, was used. Under anaerobic conditions, Carolacton inhibited formation of biofilm from Streptococcus mutans at very low concentrations.
For a determination of bio film inhibition in relation to the control, the activity value for the Carolacton comprising test well was subtracted from the value obtained for the control. At concentrations of 2.5 and 0.25 μg/mL Carolacton, respectively, bio film formation by Streptococcus mutans wild-type strain was inhibited by about 60% under anaerobic conditions.

[6] = tested on: Streptococcus mutans com C (−) mutant; assay: Biofilm formation, quorum sensing negative mutant com C (-); settings: same testing conditions
Protocol: as §1, §2

[7] = Streptococcus mutans, aerobic, read-out: Biofilm inhibition (%) under aerobic conditions
[8] = Streptococcus mutans, anaerobic, read-out: Biofilm inhibition (%) under anaerobic conditions

COC(CC(=O)O)C(C)C(=O)C(C)/C=C(\C)C1OC(=O)C(O)C(O)/C=C/C(C)CCCC1C (stereo not shown) [Carolacton]
Influence on planctonic growth [1]: only slightly influenced; also recorded: not influenced by Carolacton, or only marginally reduced
inhibition at 0.25 µg/mL [2]: ~10%
inhibition at 2.5 µg/mL [2]: ~10%
Concentration with antibiotic activity against E. coli tolC (E. coli tolC): 60 ng/mL
Biofilm inhibition, com E (−) mutant ([3]; Carolacton 2.5 μg/mL, same testing conditions): 5%
inhibition at 0.25 µg/mL ([3]; Streptococcus mutans, read-out: Biofilm inhibition, com E (−) mutant): 12%
inhibition at 2.5 µg/mL [4]: 59%
inhibition at 40.25 µg/mL [4]: 46%
Concentration needed to inhibit E. coli (E. coli): above 40 μg/mL
inhibition at 0.025 µg/mL [5, 7]: 21%
inhibition at 0.25 µg/mL [5, 7]: 21%
inhibition at 2.5 µg/mL [5, 7]: 19%
inhibition at 50 µg/mL [5, 7]: 1%
inhibition at 0.0025 µg/mL ([5]; Streptococcus mutans, anaerobic, Carolacton 0.0025 μg/mL, read-out: Biofilm inhibition (%) under anaerobic conditions): -7%
inhibition at 0.005 µg/mL ([5]; Streptococcus mutans, anaerobic, Carolacton 0.005 μg/mL, read-out: Biofilm inhibition (%) under anaerobic conditions): 35%
inhibition at 0.025 µg/mL [5, 8]: ~65%
inhibition at 0.05 µg/mL ([5]; Streptococcus mutans, anaerobic, Carolacton 0.05 μg/mL, read-out: Biofilm inhibition (%) under anaerobic conditions): 60%
inhibition at 0.25 µg/mL [5, 8]: ~60%
inhibition at 0.25 µg/mL ([5]; Streptococcus mutans, anaerobic, second experiment, read-out: Biofilm inhibition (%) under anaerobic conditions): 77%
inhibition at 2.5 µg/mL [5, 8]: ~60%
inhibition at 25 µg/mL ([5]; Streptococcus mutans, anaerobic, Carolacton 25 μg/mL, read-out: Biofilm inhibition (%) under anaerobic conditions): 66%
inhibition at 50 µg/mL [5, 8]: 82%
Lowest concentration achieving inhibition of biofilm generation ([5]; in vitro cultures): 0.005 µg/mL
Induction of biofilm formation, com C (−) mutant ([6]; Carolacton 0.25 μg/mL): 150%
Induction of biofilm formation, com C (−) mutant ([6]; Carolacton 2.5 μg/mL): 200%
